Measurements reported in US20180179210A1, “Inhibitors of the TEC Kinase Enzyme Family” (Pharmascience Inc., priority 2015, published 2018).

Key:
BTK = BTK (Homo sapiens, UniProt Q06187); assay: BTK enzyme off-rate determination (dilution kinetic experiments); assay type: biochemical; conditions: 10-30 nM compound pre-incubated with 7 nM enzyme, 1000 uM ATP, 1 h, diluted 250×, monitored 8 h
Procedure: 10-30 nM compound was pre-incubated with 7 nM enzyme in the presence of 1000 uM ATP for 1 h. The [I]-[E] complex was diluted 250× into an assay buffer with 1000 uM ATP and 2uM substrate peptide. Enzyme activity in the diluted samples was monitored in real time assay over period of 8 h. The progress curves were fit with time dependent equation to determine apparent Kobs and residence time of the compound. […] Consistent with covalent inhibition of BTK.

human BTK kinase (hBTK) = target: T1, human BTK kinase (hBTK) (Homo sapiens, UniProt Q06187); assay: BTK kinase inhibition assay (Kinase Profiler radiometric protein kinase assay, Eurofins); assay type: biochemical; conditions: radiometric [γ-33P-ATP] assay, 40 minutes at room temperature, 250 μM substrate
T1 construct: purchased Eurofins Pharma Discovery Services UK Limited (contract assay, Kinase Profiler)
Procedure: In vitro potency of selected compound was defined against human BTK kinase (hBTK) using Kinase Profiler radiometric protein kinase assays performed at Eurofins Pharma Discovery Services UK Limited.
hBTK kinase is diluted in buffer and all compounds were prepared to 50× final assay concentration in 100% DMSO. This working stock of the compound was added to the assay well as the first component in the reaction, followed by the remaining components as detailed in the assay protocol listed above. The reaction was initiated by the addition of the MgATP mix. The kinase reaction was performed at room temperature for 40 minutes in presence of 250 μM substrate, 10 mM MgAcetate, [γ-33P-ATP] (specific activity approx. 500 cpm/pmol, concentration as required) and variable test article concentrations. The ATP concentrations in the assays were with 15 μM of the apparent. The reaction was stopped by the addition of 3% phosphoric acid solution. 10 μL of the reaction is then spotted onto a P30 filtermat and washed three times for 5 minutes in 75 mM phosphoric acid and once in methanol prior to drying and scintillation counting. In addition positive control wells contain all components of the reaction, except the compound of interest; however, DMSO (at a final concentration of 2%) were included in these wells to control for solvent effects as well as blank wells contain all components of the reaction, with a reference inhibitor replacing the compound of interest. This abolishes kinase activity and establishes the base-line (0% kinase activity remaining).

Splenocytes = assay: Splenic cell proliferation assay (anti-IgM stimulated); assay type: cell-based; conditions: Splenocyte; CD1 mouse splenocytes, 1 h pre-treatment, 2.5 ug/ml anti-IgM F(ab')2 for 72 h, Cell Titer-Glo; read-out: EC50 (inhibition of splenic cell proliferation)
Procedure: Proliferation of splenocytes in response to anti-IgM can be blocked by inhibition of Btk.
Splenocytes were obtained from 6 week old male CD1 mice (Charles River Laboratories Inc.). Mouse spleens were manually disrupted in PBS and filtered using a 70 um cell strainer followed by ammonium chloride red blood cell lysis. Cells were washed, resuspended in Splenocyte Medium (HyClone RPMI supplemented with 10% heat-inactivated FBS, 0.5× non-essential amino acids, 10 mM HEPES, 50 uM beta mercaptoethanol) and incubated at 37° C., 5% CO2 for 2 h to remove adherent cells. Suspension cells were seeded in 96 well plates at 50,000 cells per well and incubated at 37° C., 5% CO2 for 1 h. Splenocytes were pre-treated in triplicate with 10,000 nM curves of Formula 1 compounds for 1 h, followed by stimulation of cell proliferation with 2.5 ug/ml anti-IgM F(ab′)2 (Jackson ImmunoResearch) for 72 h. Cell proliferation was measured by Cell Titer-Glo Luminescent Assay (Promega). EC50 values (50% proliferation in the presence of compound as compared to vehicle treated controls) were calculated from dose response compound curves using GraphPad Prism Software EC50 values are reported in Table 3: […]

[1] = system: TMD-8 human activated B cell diffuse large B cell lymphoma cells; assay: TMD-8 survival assay; assay type: cell-based; conditions: TMD8, TMD-8 cells, 72 h treatment, Cell Titer-Glo
Procedure: BTK inhibitors affect the survival of B-cell lymphomas. TMD-8 human activated B cell diffuse large B cell lymphoma cells were seeded in 96-well plates at a density of 20,000 cells/well in HyClone RPMI supplemented with 10% FBS (Fisher)/1% Penicillin/Streptomycin (HyClone) and incubated at 37° C., 5% CO2. Cells were treated in triplicate with 1,000 nM or 100 nM curves of compounds for 72 h. Cell survival was measured by Cell Titer-Glo Luminescent Assay (Promega). EC50 values (50% proliferation in the presence of compound as compared to vehicle treated controls) were calculated from dose response compound curves using GraphPad Prism Software.

BTK, sequence (Q06187 whole entry): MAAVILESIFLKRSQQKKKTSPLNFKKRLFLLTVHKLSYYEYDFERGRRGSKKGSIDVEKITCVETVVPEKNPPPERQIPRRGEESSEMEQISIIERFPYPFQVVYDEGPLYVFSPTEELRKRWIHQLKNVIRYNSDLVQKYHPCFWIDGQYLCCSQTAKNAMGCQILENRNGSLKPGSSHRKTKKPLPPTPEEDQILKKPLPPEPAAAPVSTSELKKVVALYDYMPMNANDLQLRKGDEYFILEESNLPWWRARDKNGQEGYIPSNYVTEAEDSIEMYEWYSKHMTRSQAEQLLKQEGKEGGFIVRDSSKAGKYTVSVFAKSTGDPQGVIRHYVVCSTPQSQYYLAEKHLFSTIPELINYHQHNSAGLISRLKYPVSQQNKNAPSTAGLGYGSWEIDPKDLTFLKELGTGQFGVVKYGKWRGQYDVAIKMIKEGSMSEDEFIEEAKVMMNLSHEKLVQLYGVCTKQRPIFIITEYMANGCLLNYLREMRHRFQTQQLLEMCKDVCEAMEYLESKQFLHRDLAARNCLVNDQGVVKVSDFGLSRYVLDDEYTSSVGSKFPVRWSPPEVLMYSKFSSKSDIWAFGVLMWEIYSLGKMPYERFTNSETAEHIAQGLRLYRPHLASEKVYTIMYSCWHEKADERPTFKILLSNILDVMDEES
T1 sequence (Q06187 whole entry): as above

Residence time half life (1/Kobs) (BTK): >10 h
residence time (BTK; read-out: Residence time half life (1/Kobs)): > 600 min
IC50 (human BTK kinase (hBTK)): 8 nM
SMILES: C=CC(=O)N[C@H]1C[C@@H](n2nc(-c3ccc(Oc4cc(F)cc(OCc5cnc(C)nc5)c4)cc3)c3c(N)ncnc32)C1 [Compound 27]
EC50 (Splenocytes): 0.8 nM
EC50 [1]: 4.7 nM
